Data published in patent US4616007A, “Heterocyclthio compounds, process for their manufacture, pharmaceutical preparations that contain these compounds, and the use of the latter” (Ciba-Geigy Corporation, priority 1982, dated 1986).

Columns and labels:
[1] = test system: Escherichia coli 16; assay: in vitro antibacterial activity (MIC); assay type: cell-based
[2] = test system: Escherichia coli UB 1005; assay: in vitro antibacterial activity (MIC); assay type: cell-based; details: UB1005
Description: (§1) The compounds of the formula I have valuable pharmacological properties, or can be used as intermediates for the manufacture of such compounds having valuable pharmacological properties. Compounds of the formula I in which R1 represents hydrogen or methyl, R2 represents hydroxy, R3 represents carboxy, or an esterified carboxy group that can be cleaved under physiological conditions, and R4 has the meaning given under formula I, and pharmacologically acceptable salts of such compounds having salt-forming groups have anti-bacterial activity. For example, they are effective in vitro against gram-positive and gram-negative cocci, for example Staphylococcus aureus, Streptococcus pyogenes, Streptococcus pneumoniae, and Streptococcus faecalis, and against gram-negative rod-shaped bacilli, such as Enterobacteriaceae, Haemophilus influenzae and Pseudomonas aeruginosa, and anaerobes, for example Bacteroides sp., in minimum concentrations of from approximately 0.02 to approximately 64 μg/ml. In vivo, in the case of systemic infection of mice, for example by Staphylococcus aureus or Streptococcus pyogenes, on subcutaneous or oral administration of compounds of the invention ED50 values of from approximately 8.5 to approximately 100 mg/kg result.
(§2) For example, in vitro, sodium (5R,6S)-2-[3-(1-methyltetrazol-5-ylthio)-propyl]-6-hydroxymethyl-2-penem-3-carboxylate (compound 1) and sodium (5R,6S)-2-[3-(1-dimethylaminoethyltetrazol-5-ylthio)-propyl]-6-hydroxymethyl-2-penem-3-carboxylate (compound 2) and sodium (5R,6S)-2-[3-(1-methyltetrazol-5-ylthio)-ethyl-6-hydroxymethyl-2-penem-3-carboxylate (compound 3), have the following activity: […]

[3] = test system: Escherichia coli DC 2; assay: in vitro antibacterial activity (MIC); assay type: cell-based; details: DC2
Description: as §1, §2

[4] = test system: Staphylococcus aureus Wood 46; assay: in vitro antibacterial activity (MIC); assay type: cell-based; details: WOOD46
Description: as §1, §2

[5] = test system: Escherichia coli 2018; assay: in vitro antibacterial activity (MIC); assay type: cell-based
Description: as §1, §2

[6] = test system: Escherichia coli B-1385; assay: in vitro antibacterial activity (MIC); assay type: cell-based; details: B1385
Description: as §1, §2

[7] = test system: Staphylococcus aureus A 124; assay: in vitro antibacterial activity (MIC); assay type: cell-based; details: A124
Description: as §1, §2

[8] = test system: Streptococcus pneumoniae III/84; assay: in vitro antibacterial activity (MIC); assay type: cell-based
[9] = test system: Haemophilus influenzae NCTC 4560; assay: in vitro antibacterial activity (MIC); assay type: cell-based; details: NCTC4560
[10] = test system: Neisseria gonorrhoeae 1317-4; assay: in vitro antibacterial activity (MIC); assay type: cell-based; details: 13174
[11] = test system: Serratia marcescens 344; assay: in vitro antibacterial activity (MIC); assay type: cell-based
[12] = test system: Neisseria meningitidis 1316; assay: in vitro antibacterial activity (MIC); assay type: cell-based
[13] = test system: Pseudomonas aeruginosa K 799/61; assay: in vitro antibacterial activity (MIC); assay type: cell-based; details: K799/61
[14] = test system: Streptococcus pyogenes Aronson; assay: in vivo systemic infection of mice
Description: as §1
(§3) In vivo in the systemic infection of mice, the following activity is found: […]

[15] = test system: Streptococcus pyogenes Aronson; assay: in vitro antibacterial activity (MIC); assay type: cell-based
[16] = test system: Klebsiella pneumoniae 327; assay: in vitro antibacterial activity (MIC); assay type: cell-based
[17] = test system: Proteus morganii 2359; assay: in vitro antibacterial activity (MIC); assay type: cell-based; details: Morganella morganii
[18] = test system: Staphylococcus aureus 10 B; assay: in vitro antibacterial activity (MIC); assay type: cell-based
[19] = test system: Proteus mirabilis 774; assay: in vitro antibacterial activity (MIC); assay type: cell-based
[20] = test system: Proteus morganii 1518; assay: in vitro antibacterial activity (MIC); assay type: cell-based; details: Morganella morganii
[21] = test system: Escherichia coli 205 R+TEM; assay: in vitro antibacterial activity (MIC); assay type: cell-based
[22] = test system: Proteus mirabilis 1219; assay: in vitro antibacterial activity (MIC); assay type: cell-based
[23] = test system: Escherichia coli 205; assay: in vitro antibacterial activity (MIC); assay type: cell-based
[24] = test system: Enterobacter cloacae ATCC 13047; assay: in vitro antibacterial activity (MIC); assay type: cell-based; details: ATCC13047
[25] = test system: Enterobacter cloacae P 99; assay: in vitro antibacterial activity (MIC); assay type: cell-based; details: P99
[26] = test system: Pseudomonas aeruginosa ATCC 12055; assay: in vitro antibacterial activity (MIC); assay type: cell-based; details: ATCC12055
[27] = test system: Clostridium perfringens 194; assay: microbe, parasite or virus in culture; assay type: cell-based
[28] = test system: Staphylococcus aureus 2999i+p+; assay: in vitro antibacterial activity (MIC); assay type: cell-based
[29] = test system: Proteus rettgeri 856; assay: in vitro antibacterial activity (MIC); assay type: cell-based; details: Providencia rettgeri
[30] = test system: Streptococcus faecalis D 3; assay: in vitro antibacterial activity (MIC); assay type: cell-based; details: Enterococcus faecalis, D3
[31] = test system: Bacteroides fragilis L 01; assay: in vitro antibacterial activity (MIC); assay type: cell-based; details: L01
[32] = test system: Staphylococcus aureus 10 B; assay: in vivo systemic infection of mice
Description: as §1, §3

[33] = test system: Escherichia coli 2018; assay: in vivo systemic infection of mice
Description: as §1, §3

Row | SMILES | MIC [1] [µg/mL] | MIC [2] [µg/mL] | MIC [3] [µg/mL] | MIC [8] [µg/mL] | MIC [9] [µg/mL] | MIC [11] [µg/mL] | MIC [13] [µg/mL] | ED50 ([14]; po) [mg/kg] | ED50 ([14]; sc) [mg/kg] | MIC [15] [µg/mL] | MIC [16] [µg/mL] | MIC [17] [µg/mL] | MIC [18] [µg/mL] | MIC [19] [µg/mL] | MIC [20] [µg/mL] | MIC [21] [µg/mL] | MIC [22] [µg/mL] | MIC [23] [µg/mL] | MIC [24] [µg/mL] | MIC [25] [µg/mL] | also measured
1 | Cn1nnnc1SCCC1=C(C(=O)[O-])N2C(=O)[C@H](CO)[C@H]2S1.[Na+] [Compound 3, Sodium (5R,6S)-2-[2-(1-Methyltetrazol-5-ylthio)-ethyl]-6-hydroxymethyl-2-penem-3-carboxylate] | 4 | 2 | 2 | 0.02 | 2 | 16 | 1 | 30 | 12 | 0.1 | 2 | 2 | 0.05 | 2 | 4 | 2 | 4 | 1 | 32 | 16 | MIC [4]: 0.05 µg/mL; MIC [5]: 0.5 µg/mL; MIC [6]: 2 µg/mL; MIC [7]: 0.5 µg/mL; MIC [10]: 0.01 µg/mL; MIC [12]: 0.02 µg/mL; MIC [26]: > 128 µg/mL; MIC [27]: 0.1 µg/mL; MIC [28]: 0.05 µg/mL; MIC [29]: 4 µg/mL; MIC [30]: 32 µg/mL; MIC [31]: 0.2 µg/mL
2 | Cn1nnnc1SCCCC1=C(C(=O)[O-])N2C(=O)[C@H](CO)[C@H]2S1.[Na+] [Compound 1, sodium (5R,6S)-2-[3-(1-methyltetrazol-5-ylthio)-propyl]-6-hydroxymethyl-2-penem-3-carboxylate] | 16 | 4 | 2 | 0.02 | 0.5 | 16 | 2 | ~30 | 8.5 | 0.1 | 4 | 2 | 0.05 | 2 | 4 | 4 | 8 | 2 | 64 | 32 | ED50 ([32]; po): 90 mg/kg; ED50 ([32]; sc): 60 mg/kg; ED50 ([33]; Escherichia coli, 2018, po, p.o.): 90 mg/kg; ED50 ([33]; Escherichia coli, 2018, sc, s.c.): 30 to 100 mg/kg; MIC [26]: > 128 µg/mL; MIC [27]: 0.02 µg/mL; MIC [28]: 0.05 µg/mL; MIC [29]: 4 µg/mL; MIC [30]: 64 µg/mL; MIC [31]: 0.5 µg/mL
